Laboratory results published in patent US20190367516A1 (Bayer Pharma Aktiengesellschaft, priority 2015, published 2019).
Where two headings read alike, the source gives them in different places.

How the values were obtained:
[1] = target: T1, human M2 receptor (Homo sapiens, UniProt P08172); type: cell-based; settings: α >1 = positive cooperativity
T1 sequence (P08172 1-466): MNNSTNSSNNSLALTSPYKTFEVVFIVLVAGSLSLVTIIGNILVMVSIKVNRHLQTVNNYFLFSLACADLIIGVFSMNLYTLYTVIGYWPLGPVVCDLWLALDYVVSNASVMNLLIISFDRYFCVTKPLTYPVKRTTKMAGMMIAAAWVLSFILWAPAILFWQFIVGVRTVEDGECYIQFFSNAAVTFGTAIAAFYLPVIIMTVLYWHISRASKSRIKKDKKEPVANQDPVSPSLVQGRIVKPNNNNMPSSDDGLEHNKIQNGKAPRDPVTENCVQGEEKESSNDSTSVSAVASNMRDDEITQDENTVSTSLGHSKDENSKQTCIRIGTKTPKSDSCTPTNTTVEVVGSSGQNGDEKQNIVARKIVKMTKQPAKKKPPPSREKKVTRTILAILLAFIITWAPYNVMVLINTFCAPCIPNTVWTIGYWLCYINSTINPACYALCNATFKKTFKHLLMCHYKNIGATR

[2] = target: T1, human M2 receptor; settings: for Efficiency: boosting of the acetylcholine effect at EC20 acetylcholine concentration; for Emax: read-out: Efficiency, boosting of the acetylcholine effect at EC20 acetylcholine concentration
[3] = shift in the acetylcholine dose-response curve (Allosteric EC50 shift, GraphPad PRISM)
[4] = Receptor activity EC50, M2-GIRK1/4 activation test, acetylcholine at EC20, allosteric potency, in some cases mean values from two or more determinations
[5] = shift of acetylcholine dose-response curve (Allosteric EC50 shift)
[6] = Receptor activity EC50, allosteric potency at EC20 acetylcholine, M2-GIRK1/4 reporter cells, in some cases mean of two or more determinations

Structure (SMILES)	Cooperativity (alpha factor) [1, 3]	EC50 [2, 4]	Cooperativity (alpha factor) [1, 5]	EC50 [2, 6]	other results
O=C(NC(c1cccc(F)c1)C(F)(F)F)c1cn(-c2ccc(F)cc2F)c2nc(N3C[C@@H](O)CC3=O)ccc2c1=O (mixture of isomers) [Example 272, 1-(2,4-Difluorophenyl)-7-[(4S)-4-hydroxy-2-oxopyrrolidin-1-yl]-4-oxo-N-[2,2,2-trifluoro-1-(3-fluorophenyl)ethyl]-1,4-dihydro-1,8-naphthyridine-3-carboxamide]	55	33 nM			
O=C(NC(c1ccccc1Cl)C(F)(F)F)c1cn(-c2c(F)cc(F)cc2F)c2nc(N3C[C@@H](O)[C@H](O)C3)ccc2c1=O (single isomer, unassigned) [Example 562]			40	10 nM	Efficiency ([2]; M2-GIRK1/4 reporter cells): 100.0%
O=C(NC12CC3CC(CC(C3)C1)C2)c1cn(-c2ccc(F)cc2F)c2nc(N3CCC4(C3)CC4(F)F)ccc2c1=O (stereo not drawn) [Example 13, 7-(1,1-Difluoro-5-azaspiro[2.4]hept-5-yl)-1-(2,4-difluorophenyl)-4-oxo-N-(tricyclo[3.3.1.1^3,7]dec-1-yl)-1,4-dihydro-1,8-naphthyridine-3-carboxamide]	6	71 nM			
O=C(NC12CC3CC(CC(C3)C1)C2)c1cn(-c2ccc(F)cc2F)c2nc(N3CCC(O)(O)C(F)(F)C3)ccc2c1=O [Example 6, 7-(3,3-Difluoro-4,4-dihydroxypiperidin-1-yl)-1-(2,4-difluorophenyl)-4-oxo-N-(tricyclo[3.3.1.1^3,7]dec-1-yl)-1,4-dihydro-1,8-naphthyridine-3-carboxamide]	15	34 nM			
COC(=O)N1CCN(c2ccc3c(=O)c(C(=O)NC45CC6CC(CC(C6)C4)C5)cn(-c4ccc(F)cc4F)c3n2)CC1 [Example 4, Methyl 4-[8-(2,4-difluorophenyl)-5-oxo-6-(tricyclo[3.3.1.1^3,7]dec-1-ylcarbamoyl)-5,8-dihydro-1,8-naphthyridin-2-yl]piperazine-1-carboxylate]	30	24 nM			
CC(C)C[C@H](NC(=O)c1cn(-c2c(F)cc(F)cc2F)c2nc(N3CCNC3=O)ccc2c1=O)C(F)(F)F [Example 543, 4-Oxo-7-(2-oxoimidazolidin-1-yl)-N-[(2S)-1,1,1-trifluoro-4-methylpentan-2-yl)-1-(2,4,6-trifluorophenyl)-1,4-dihydro-1,8-naphthyridine-3-carboxamide]			28	8 nM	Emax ([2]; M2-GIRK1/4 reporter cells): 100%
O=C(NC(c1c(F)cccc1F)C(F)(F)F)c1cn(-c2ccc(F)cc2F)c2nc(N3C[C@@H](O)CC3=O)ccc2c1=O (single isomer, unassigned) [Example 246]	53	23 nM			
CC[C@H](NC(=O)c1cn(-c2c(F)cc(F)cc2F)c2nc(N3C[C@@](C)(O)C[C@H]3C)ccc2c1=O)C(F)(F)F [Example 331, 7-[(2R,4S)-4-Hydroxy-2,4-dimethylpyrrolidin-1-yl]-4-oxo-N-[(2S)-1,1,1-trifluorobutan-2-yl]-1-(2,4,6-trifluorophenyl)-1,4-dihydro-1,8-naphthyridine-3-carboxamide]	7	33 nM			
CC[C@@H](COC(F)(F)F)NC(=O)c1cn(-c2c(F)cc(F)cc2F)c2nc(N3C[C@@H](C)NC3=O)ccc2c1=O (single isomer, unassigned) [Example 454]			28	7 nM	Emax ([2]; M2-GIRK1/4 reporter cells): 100%
CCC(NC(=O)c1cn(-c2ccc(F)cc2F)c2nc(N3CCCC3=O)ccc2c1=O)C(F)(F)F (stereo not drawn) [Example 177]	5	138 nM			
CC[C@@H](NC(=O)c1cn(-c2ccc(F)cc2F)c2nc(NCC(F)F)ccc2c1=O)C(F)(F)F [Example 123, 7-[(2,2-Difluoroethyl)amino]-1-(2,4-difluorophenyl)-4-oxo-N-[(2R)-1,1,1-trifluorobutan-2-yl]-1,4-dihydro-1,8-naphthyridine-3-carboxamide]	14	115 nM			
CC[C@@H](NC(=O)c1cn(-c2ccc(F)cc2F)c2nc(N3CCCC3)ccc2c1=O)C(F)(F)F [Example 192, 1-(2,4-Difluorophenyl)-4-oxo-7-(pyrrolidin-1-yl)-N-[(2R)-1,1,1-trifluorobutan-2-yl]-1,4-dihydro-1,8-naphthyridine-3-carboxamide]	9	54 nM			
CC[C@H](NC(=O)c1cn(-c2ccc(F)cc2F)c2nc(N3CC[C@H](F)C3)ccc2c1=O)C(F)(F)F [Example 64, 1-(2,4-Difluorophenyl)-7-[(3S)-3-fluoropyrrolidin-1-yl]-4-oxo-N-[(2S)-1,1,1-trifluorobutan-2-yl]-1,4-dihydro-1,8-naphthyridine-3-carboxamide]	28	12 nM			
C[C@@H]1CN(c2ccc3c(=O)c(C(=O)NC(C)(C)CC(F)(F)F)cn(-c4c(F)cc(F)cc4F)c3n2)C(=O)N1 [Example 457, 7-[(4R)-4-Methyl-2-oxoimidazolidin-1-yl]-4-oxo-N-(4,4,4-trifluoro-2-methylbutan-2-yl)-1-(2,4,6-trifluorophenyl)-1,4-dihydro-1,8-naphthyridine-3-carboxamide]			36	4 nM	Emax ([2]; M2-GIRK1/4 reporter cells): 82%
CC[C@@H](NC(=O)c1cn(-c2c(F)cccc2F)c2nc(N3C[C@@H](O)[C@@H](O)C3)ccc2c1=O)C(F)(F)F [Example 648, 1-(2,6-Difluorophenyl)-7-[(3R,4S)-3,4-dihydroxypyrrolidin-1-yl]-4-oxo-N-[(2R)-1,1,1-trifluorobutan-2-yl]-1,4-dihydro-1,8-naphthyridine-3-carboxamide]			49	81 nM	Emax ([2]; M2-GIRK1/4 reporter cells): 96.5%
O=C(NC(C1CC1)C(F)(F)F)c1cn(-c2c(F)cccc2F)c2nc(N3C[C@@H](O)CC3=O)ccc2c1=O (mixture of isomers) [Example 295, N-[1-Cyclopropyl-2,2,2-trifluoroethyl]-1-(2,6-difluorophenyl)-7-[(4S)-4-hydroxy-2-oxopyrrolidin-1-yl]-4-oxo-1,4-dihydro-1,8-naphthyridine-3-carboxamide]	71	21 nM			
CC[C@H](NC(=O)c1cn(-c2c(F)cc(F)cc2Cl)c2nc(N3CCC(C)C3=O)ccc2c1=O)C(F)(F)F (single isomer, unassigned) [Example 424]			15	7 nM	Efficiency ([2]; M2-GIRK1/4 reporter cells): 99.0%
CCC(COC(F)(F)F)NC(=O)c1cn(-c2c(F)cc(F)cc2F)c2nc(N3C[C@@H](O)CC3=O)ccc2c1=O (single isomer, unassigned) [Example 412]			34	16 nM	Efficiency ([2]; M2-GIRK1/4 reporter cells): 98.0%
CC[C@@H](NC(=O)c1cn(-c2c(F)cc(F)cc2F)c2nc(N3CCC(O)C3=O)ccc2c1=O)C(F)(F)F (stereo partly drawn) [Example 282, 7-[3-Hydroxy-2-oxopyrrolidin-1-yl-4-oxo-N-[(2R)-1,1,1-trifluorobutan-2-yl]-4-oxo-N-trifluorobutan-2-yl]-1-(2,4,6-trifluorophenyl)-1,4-dihydro-1,8-naphthyridine-3-carboxamide]	32				EC50 ([2]; read-out: Receptor activity EC50, M2-GIRK1/4 activation test, acetylcholine at EC20, allosteric potency, in some cases mean values from two or more determinations): 21 nM
C[C@@H]1CN(c2ccc3c(=O)c(C(=O)N[C@@H](C4CC4)C(F)(F)F)cn(-c4c(F)cc(F)cc4F)c3n2)C(=O)N1 [Example 437, N-[(1S)-1-Cyclopropyl-2,2,2-trifluoroethyl]-7-[(4R)-4-methyl-2-oxoimidazolidin-1-yl]-4-oxo-1-(2,4,6-trifluorophenyl)-1,4-dihydro-1,8-naphthyridine-3-carboxamide]			29	9 nM	Emax ([2]; M2-GIRK1/4 reporter cells): 98.4%
O=C(NC(c1c(F)cccc1F)C(F)(F)F)c1cn(-c2ccc(F)cc2F)c2nc(N3CCCC(O)C3=O)ccc2c1=O (single isomer, unassigned) [Example 250, 1-(2,4-Difluorophenyl)-N-[1-(2,6-difluorophenyl)-2,2,2-trifluoroethyl]-7-[3-hydroxy-2-oxopiperidin-1-yl]-4-oxo-1,4-dihydro-1,8-naphthyridine-3-carboxamide]	27	101 nM			
CC[C@H](NC(=O)c1cn(-c2ccc(F)cc2F)c2nc(N3CC=CC3=O)ccc2c1=O)C(F)(F)F [Example 286, 1-(2,4-Difluorophenyl)-4-oxo-7-(2-oxo-2,5-dihydro-1H-pyrrol-1-yl)-N-[(2S)-1,1,1-trifluorobutan-2-yl]-1,4-dihydro-1,8-naphthyridine-3-carboxamide]	3	94 nM			
CC(C)(C)C(NC(=O)c1cn(-c2c(F)cc(F)cc2F)c2nc(N3CCNC3=O)ccc2c1=O)C(F)(F)F (stereo in doubt) [Example 360, 4-Oxo-7-(2-oxoimidazolidin-1-yl)-N-[(2S)-1,1,1-trifluoro-3,3-dimethylbutan-2-yl]-1-(2,4,6-trifluorophenyl)-1,4-dihydro-1,8-naphthyridine-3-carboxamide]	36	6 nM			
